Assays:
[1] = target: T1, hSOS1 (hSOS1-mediated nucleotide exchange of hK-RasG12C) (Homo sapiens, UniProt Q07889); assay: Biochemical Assay 2: hK-RasG12C activation assay by hSOS1 at high GTP concentration (HTRF nucleotide exchange); conditions: high GTP (50 μM GTP)
T1 construct: hSOS1 (amino acid 564-1049); made in house; host or cells: E. coli BL21 (DE3)
T1 sequence (Q07889 with tags, fused parts or gaps): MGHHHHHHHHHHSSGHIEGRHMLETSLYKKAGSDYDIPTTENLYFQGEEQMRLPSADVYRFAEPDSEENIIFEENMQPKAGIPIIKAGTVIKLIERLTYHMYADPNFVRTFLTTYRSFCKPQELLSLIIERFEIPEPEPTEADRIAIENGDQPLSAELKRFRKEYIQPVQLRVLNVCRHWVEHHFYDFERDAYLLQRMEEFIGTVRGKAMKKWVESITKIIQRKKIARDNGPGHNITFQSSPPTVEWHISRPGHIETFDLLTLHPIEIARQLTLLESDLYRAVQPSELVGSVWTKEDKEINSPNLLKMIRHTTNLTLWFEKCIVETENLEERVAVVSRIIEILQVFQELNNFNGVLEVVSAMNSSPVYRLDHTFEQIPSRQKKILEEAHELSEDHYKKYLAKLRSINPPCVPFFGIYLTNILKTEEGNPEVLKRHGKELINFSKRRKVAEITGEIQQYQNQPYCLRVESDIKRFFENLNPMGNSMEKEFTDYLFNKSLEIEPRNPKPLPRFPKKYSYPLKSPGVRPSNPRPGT
Source text: Biochemical Assay 2: hK-RasG12C Activation Assay by hSOS1 at High GTP Concentration
This assay quantifies human SOS1-mediated nucleotide exchange of human K-Ras^G12C (hK-RasG12C) preloaded with a fluorescent […] and in presence of an excess of free GTP. Loaded hK-RasG12C generates a high HTRF-signal by energy transfer from antiGST-Terbium (FRET donor) bound to hK-Ras to the loaded fluorescent GDP analog (FRET-acceptor). hSOS1 activity exchanges the fluorescent GDP for non-fluorescent GTP and therefore leads to a reduction of the HTRF signal.
The fluorescent GDP-analog EDA-GDP-Dy647P1 (2′/3′-O-(2-Aminoethyl-carbamoyl)-guanosine-5′-diphosphate labelled with Dy647P1 (Dyomics GmbH, Germany)) was synthesized by Jena Biosciences GmbH (Germany) and supplied as a 1 mM aqueous solution.
Concentrations of protein batches used were optimized to be within the linear range of the HTRF signal.
Addition of 20 μl 1 M MgCl2 (Sigma) to final 40 mM and store on ice. Purification into buffer (10 mM HEPES pH 7.4 (Applichem), 150 mM NaCl (Sigma), 5 mM MgCl2 (Sigma)) by use of a PD-Minitrap desalting column (GE Healthcare). Concentration of 1 ml purified hK-Ras-GDP-Dy647 is approx. 4-5 μM.
The assay buffer contained 10 mM HEPES pH 7.4 (Applichem), 150 mM NaCl (Sigma), 5 mM MgCl2 (Sigma), 1 mM DTT (Thermofisher), 0.05% BSA Fraction V, pH 7.0, (ICN Biomedicals), 0.0025% (v/v) Igepal (Sigma).
A Ras working solution was prepared in assay buffer containing typically 80 nM loaded GST-hK-RasG12C-EDA-GDP-Dy647P1 and 2 nM antiGST-Tb (Cisbio, France).
Alternatively, the inhibitor control solution was prepared by supplementing the hSOS1 working solution with 20 μM of 6,7-dimethoxy-N-[(1R)-1-(1-naphthyl)ethyl]quinazolin-4-amine which was used to calibrate the assay.
(§1) Fifty nl of a 100-fold concentrated solution of the test compound in DMSO were transferred into a black microtiter test plate (384 or 1536, Greiner Bio-One, Germany) For this, either a Hummingbird liquid handler (Digilab, Mass., USA) or an Echo acoustic system (Labcyte, Calif., USA) was used.
(§2) All steps of the assay were performed at 20° C. A volume of 2.5 μl of the Ras working solution was added to all wells of the test plate using a Multidrop dispenser (Thermo Labsystems). After 2 min. preincubation, 2.5 μl of the hSOS1 working solution were added to all wells except for those wells at the side of the test plate that were subsequently filled with 2.5 μl of the inhibitor control solution. After 20 min. incubation the fluorescence was measured with a Pherastar (BMG, Germany) using the HTRF module (excitation 337 nm, emission 1:620 nm, emission 2:665 nm).
(§3) IC50 values were calculated by 4-Parameter fitting using a commercial software package (Genedata Screener, Switzerland).

[2] = target: T2, hK-RasG12C - hSOS1 interaction (Homo sapiens, UniProt Q07889); assay: Biochemical Assay 1: hK-RasG12C interaction assay with hSOS1 (HTRF); assay type: binding; conditions: for IC50: values expressed as IC50; for inhibition at 20 µM: read-out: Assay 1 (hKRAS, hSOS Interaction) activity (expressed as IC50, or as % inhibition at 20 μM)
T2 construct: hSOS1 (amino acid 564-1049); made in house; host or cells: E. coli BL21 (DE3)
T2 sequence (Q07889 with tags, fused parts or gaps): T1 sequence (Q07889 with tags, fused parts or gaps)
Experimental: Biochemical Assay 1: hK-RasG12C Interaction Assay with hSOS1
This assay quantifies the equilibrium interaction of human SOS1 (hSOS1) with human K-Ras^G12C (hK-RasG12C). Detection of the interaction is achieved by measuring homogenous time-resolved fluorescence resonance energy transfer (HTRF) from antiGST-Europium (FRET donor) bound to GST-K-RasG12C to anti-6His-XL665 bound to His-tagged hSOS1 (FRET-acceptor).
The assay buffer contained 5 mM HEPES pH 7.4 (Applichem), 150 mM NaCl (Sigma), 10 mM EDTA (Promega), 1 mM DTT (Thermofisher), 0.05% BSA Fraction V, pH 7.0, (ICN Biomedicals), 0.0025% (v/v) Igepal (Sigma) and 100 mM KF (FLUKA).
Concentrations of protein batches used were optimized to be within the linear range of the HTRF signal. A Ras working solution was prepared in assay buffer containing typically 10 nM GST-hK-RasG12C and 2 nM antiGST-Eu(K) (Cisbio, France). A SOS1 working solution was prepared in assay buffer containing typically 20 nM His-hSOS1 and 10 nM anti-6His-XL665 (Cisbio, France). An inhibitor control solution was prepared in assay buffer containing 10 nM anti-6His-XL665 without hSOS1.
as §1
as §2, with “[…]” for “min.”, “SOS1” for “hSOS1”, “[…]” for “20 min.”
as §3

With COCCOc1ncc2nc(C)nc(N[C@H](C)c3cccc(Br)c3)c2n1 [Example 26, N-[(1R)-1-(3-bromophenyl)ethyl]-6-(2-methoxyethoxy)-2-methylpyrimido[5,4-d]pyrimidin-4-amine] the IC50 [1] was 3.04 µM and the IC50 [2] was 2750 nM.

Cc1nc(N[C@H](C)c2cccc(Br)c2)c2nc(N3CCOCC3)ccc2n1 [Example 27, N-[(1R)-1-(3-bromophenyl)ethyl]-2-methyl-6-(morpholin-4-yl)pyrido[3,2-d]pyrimidin-4-amine] was tested, and the IC50 [1] was 1.84 µM and the IC50 [2] was 2580 nM.

With COc1ccc2nc(C)nc(N[C@H](C)c3cccc(Br)c3)c2n1 [Example 28, N-[(1R)-1-(3-bromophenyl)ethyl]-6-methoxy-2-methylpyrido[3,2-d]pyrimidin-4-amine] the IC50 [1] was > 20 µM and the inhibition at 20 µM [2] was 49.8%.

In the case of CCOc1ccc2nc(C)nc(N[C@H](C)c3cccc(Br)c3)c2n1 [Example 29, N-[(1R)-1-(3-bromophenyl)ethyl]-6-ethoxy-2-methylpyrido[3,2-d]pyrimidin-4-amine], the IC50 [1] is reported as > 20 µM and the IC50 [2] is reported as 17400 nM.

For COCCOc1ccc2nc(C)nc(N[C@H](C)c3cccc(Br)c3)c2n1 [Example 30, N-[(1R)-1-(3-bromophenyl)ethyl]-6-(2-methoxyethoxy)-2-methylpyrido[3,2-d]pyrimidin-4-amine], the IC50 [1] was 5.74 µM and the IC50 [2] was 5430 nM.

For Cc1nc(N[C@H](C)c2cccc(Br)c2)c2nc(N(C)C)ccc2n1 [Example 31], the IC50 [1] was ≥ 40 µM and the IC50 [2] was 17700 nM.

In the case of Cc1nc(N[C@H](C)c2cccc(Br)c2)c2nc(Oc3ccccc3)ccc2n1 [Example 32, N-[(1R)-1-(3-bromophenyl)ethyl]-2-methyl-6-phenoxypyrido[3,2-d]pyrimidin-4-amine], the IC50 [1] is reported as > 20 µM and the inhibition at 20 µM [2] is reported as 22.4%.

In the case of Cc1nc(N[C@H](C)c2cccc(Br)c2)c2nc(OCc3ccccc3)ccc2n1 [Example 33, 6-(benzyloxy)-N-[(1R)-1-(3-bromophenyl)ethyl]-2-methylpyrido[3,2-d]pyrimidin-4-amine], the IC50 [1] is reported as > 20 µM and the inhibition at 20 µM [2] is reported as 29.3%.

For Cc1nc(N[C@H](C)c2cccc(Br)c2)c2cc(F)ncc2n1 [Example 34, N-[(1R)-1-(3-bromophenyl)ethyl]-6-fluoro-2-methylpyrido[3,4-d]pyrimidin-4-amine], the IC50 [1] was > 20 µM and the inhibition at 20 µM [2] was 36.7%.

With Cc1nc(NC(C)c2ccc(Br)s2)c2cc(F)ncc2n1 (centres unmarked) [Example 35] the IC50 [1] was > 20 µM and the inhibition at 20 µM [2] was 23.5%.

Work on CNCc1ccccc1-c1ccc(C(C)Nc2nc(C)nc3cnc(F)cc23)s1 (centres unmarked) [Example 36, 6-fluoro-2-methyl-N-[1-(5-{2-[(methylamino)methyl]phenyl}thiophen-2-yl)ethyl]pyrido[3,4-d]pyrimidin-4-amine] yielded an IC50 [1] of 19 µM and an IC50 [2] of 9030 nM.

CNCc1ccccc1-c1ccc(C(C)Nc2nc(C)nc3cnc(Oc4ccc(N5CCCC5=O)cc4)cc23)s1 (centres unmarked) [Example 38, 1-{4-[(2-methyl-4-{[1-(5-{2-[(methylamino)methyl]phenyl}thiophen-2-yl)ethyl]amino}pyrido[3,4-d]pyrimidin-6-yl)oxy]phenyl}pyrrolidin-2-one] was tested, and the IC50 [1] was 0.601 µM and the IC50 [2] was 218 nM.

In the case of Cc1nc(N[C@H](C)c2cccc(Br)c2)c2cc(NCCN3CCOCC3)ncc2n1 [Example 39], the IC50 [1] is reported as 1.36 µM and the IC50 [2] is reported as 876 nM.

Cc1nc(N[C@H](C)c2cccc(Br)c2)c2cc(Oc3cccc(O)c3)ncc2n1 [Example 40, 3-[(4-{[(1R)-1-(3-bromophenyl)ethyl]amino}-2-methylpyrido[3,4-d]pyrimidin-6-yl)oxy]phenol] was tested, and the IC50 [1] was 8.66 µM and the IC50 [2] was 13200 nM.

For Cc1nc(N[C@H](C)c2cccc(Br)c2)c2cc(Oc3cccc(C4=NCCN4C)c3)ncc2n1 [Example 41, N-[(1R)-1-(3-bromophenyl)ethyl]-2-methyl-6-[3-(1-methyl-4,5-dihydro-1H-imidazol-2-yl)phenoxy]pyrido[3,4-d]pyrimidin-4-amine], the IC50 [1] was 2.31 µM and the IC50 [2] was 1600 nM.

Cc1nc(N[C@H](C)c2cccc(Br)c2)c2cc(N3CCN(Cc4cccnc4)CC3)ncc2n1 [Example 43, N-[(1R)-1-(3-bromophenyl)ethyl]-2-methyl-6-[4-(pyridin-3-ylmethyl)piperazin-1-yl]pyrido[3,4-d]pyrimidin-4-amine] was tested, and the IC50 [1] was 0.38 µM and the IC50 [2] was 296 nM.

Work on CC(=O)NCCNc1cc2c(N[C@H](C)c3cccc(Br)c3)nc(C)nc2cn1 [Example 44, N-{2-[(4-{[(1R)-1-(3-bromophenyl)ethyl]amino}-2-methylpyrido[3,4-d]pyrimidin-6-yl)amino]ethyl}acetamide] yielded an IC50 [1] of 1.06 µM and an IC50 [2] of 985 nM.

Cc1nc(N[C@H](C)c2cccc(Br)c2)c2cc(N3CCNC(=O)C3)ncc2n1 [Example 45] showed an IC50 [1] of 0.506 µM and an IC50 [2] of 91.8 nM.

Compound Cc1nc(N[C@H](C)c2cccc(Br)c2)c2cc(NC3CCOCC3)ncc2n1 [Example 46] has an IC50 [1] of 4.22 µM and an IC50 [2] of 1290 nM.

Cc1nc(NC(C)c2ccc(-c3ccccc3CN(C)C)s2)c2cc(NCCN3CCOCC3)ncc2n1 (centres unmarked) [Example 48] showed an IC50 [1] of 0.141 µM and an IC50 [2] of 38.8 nM.

For Cc1nc(N[C@H](C)c2cccc(Br)c2)c2cc(NCCn3cccn3)ncc2n1 [Example 49, N4-[(1R)-1-(3-bromophenl)pethyl]-2-methyl-N6-[2-(1H-pyrazol-1-yl)ethyl]pyrido[3,4-d]pyrimidine-4,6-diamine], the IC50 [1] was 3.63 µM and the IC50 [2] was 1210 nM.

In the case of CC(=O)NCCNc1cc2c(NC(C)c3ccc(-c4ccccc4CN(C)C)s3)nc(C)nc2cn1 (centres unmarked) [Example 51, N-{2-[(4-{[1-(5-{2-[(dimethylamino)methyl]phenyl}thiophen-2-yl)ethyl]amino}-2-methylpyrido[3,4-d]pyrimidin-6-yl)amino]ethyl}acetamide], the IC50 [1] is reported as 0.0778 µM and the IC50 [2] is reported as 32.9 nM.

From patent US20220274979A1 (Bayer Pharma Aktiengesellschaft, priority 2018, published 2022)
